Earlier results as cited in patent US20130143845A1, “VITAMIN D COMPOUNDS AND METHODS FOR ENHANCING MUSCLE STRENGTH, AND PREVENTION AND TREATMENT OF DISEASE IN HUMAN BEINGS” (priority 2011, published 2013).
Like-named read-outs stand apart in the source and are kept apart here.

Details: in circulation

Compound: C=C1/C(=C\C=C2/CCC[C@]3(C)[C@@H]([C@H](C)CCCC(C)(C)O)CC[C@@H]23)C[C@@H](O)C[C@@H]1O [1,25(OH)2D3, 1α,25-dihydroxyvitamin D3]
- half-life of 1,25(OH)2D3 (prolonged by the invention (D3FACCPG), Lichtmann, personal communication): approximately 12 hours
- half-life of 1,25(OH)2D3 (without the invention (Holick, 2003)): approximately 4 hours
